According to PubChem BioAssay (NCI):
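Results reflect a 48-hour exposure of cells in 96-well plates to compound at five concentrations. Abbreviation: GI50, concentration required for 50% inhibition of growth. TGI: total growth inhibition.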

Legend:
Experiment in all cases: inhibition of tumour cell growth, NCI panel, 48 h
786-0 renal = test system: 786-0 renal
OVCAR-4 ovarian = test system: OVCAR-4 ovarian
HOP-92 NSCLC = test system: HOP-92 NSCLC
UACC-257 melanoma = test system: UACC-257 melanoma
HCC-2998 colon = test system: HCC-2998 colon
LOX IMVI melanoma = test system: LOX IMVI melanoma
EKVX NSCLC = test system: EKVX NSCLC
T-47D breast = test system: T-47D breast
MDA-MB-435 = test system: MDA-MB-435
HS 578T breast = test system: HS 578T breast

Q: Which results are given for `CC1(C)C(=O)C(C)(C)C1=NNC(N)=S`?
A: TGI (786-0 renal): > 100 µM; TGI (OVCAR-4 ovarian): > 100 µM; TGI (HOP-92 NSCLC): > 100 µM; TGI (UACC-257 melanoma): > 100 µM; TGI (HCC-2998 colon): > 100 µM; TGI (LOX IMVI melanoma): > 100 µM

Q: Which TGI (786-0 renal) does the source give for `c1ccc2c(c1)Cc1c(Cc3csc4ccccc34)ccc3cccc-2c13` here?
A: > 100 µM

Q: And the TGI (OVCAR-4 ovarian)?
A: > 100 µM

Q: What about the TGI (HOP-92 NSCLC) of the same molecule?
A: > 100 µM

Q: What about the TGI (UACC-257 melanoma) of the same molecule?
A: > 100 µM

Q: And the TGI (HCC-2998 colon)?
A: > 100 µM

Q: And the TGI (EKVX NSCLC)?
A: > 100 µM

Q: `O=C(CCC(=O)Nc1cccc(C(F)(F)F)c1)CC(=O)c1ccc2ccccc2c1` was tested. Which TGI (786-0 renal) did it give?
A: > 100 µM

Q: What about the TGI (OVCAR-4 ovarian) of the same molecule?
A: > 100 µM

Q: And the TGI (HOP-92 NSCLC)?
A: > 100 µM

Q: What about the TGI (UACC-257 melanoma) of the same molecule?
A: > 100 µM

Q: And the TGI (HCC-2998 colon)?
A: > 100 µM

Q: What about the TGI (LOX IMVI melanoma) of the same molecule?
A: > 100 µM

Q: What about the TGI (EKVX NSCLC) of the same molecule?
A: > 100 µM

Q: What does the source list for `CC1=CP(=O)(c2ccccc2)C=C(C)C1=C(Cl)Cl` (stereo not given)?
A: TGI (786-0 renal): 16.5 µM; TGI (OVCAR-4 ovarian): 26 µM; TGI (HCC-2998 colon): 29.8 µM; TGI (LOX IMVI melanoma): 14.9 µM

Q: How did the TGI (786-0 renal) turn out when `CC(C)COC1Sc2ccccc2S1` was run?
A: 50 µM

Q: What about the TGI (OVCAR-4 ovarian) of the same molecule?
A: 53.4 µM

Q: And the TGI (HOP-92 NSCLC)?
A: 28.1 µM

Q: And the TGI (HCC-2998 colon)?
A: 45.3 µM

Q: What about the TGI (LOX IMVI melanoma) of the same molecule?
A: 37.9 µM

Q: And the TGI (EKVX NSCLC)?
A: 38.1 µM

Q: For `O=C1Nc2ccccc2/C1=C\c1nc(-c2ccccc2F)n2ccccc12`, which GI50 (786-0 renal) is on record?
A: 3.44 µM

Q: What about the TGI (786-0 renal) of the same molecule?
A: 10.1 µM

Q: What about the GI50 (OVCAR-4 ovarian) of the same molecule?
A: 1.81 µM

Q: What about the TGI (OVCAR-4 ovarian) of the same molecule?
A: 4.49 µM

Q: What about the GI50 (UACC-257 melanoma) of the same molecule?
A: 5.2 µM

Q: What about the TGI (UACC-257 melanoma) of the same molecule?
A: 18.1 µM

Q: And the GI50 (T-47D breast)?
A: 2.36 µM

Q: And the TGI (T-47D breast)?
A: 8.11 µM

Q: What about the GI50 (HCC-2998 colon) of the same molecule?
A: 55.2 µM

Q: What about the TGI (HCC-2998 colon) of the same molecule?
A: > 100 µM

Q: What about the GI50 (LOX IMVI melanoma) of the same molecule?
A: 4.15 µM

Q: And the TGI (LOX IMVI melanoma)?
A: 15.6 µM

Q: What about the GI50 (EKVX NSCLC) of the same molecule?
A: 10.6 µM

Q: And the TGI (EKVX NSCLC)?
A: 28.3 µM

Q: And the GI50 (MDA-MB-435)?
A: 3.95 µM

Q: And the TGI (MDA-MB-435)?
A: 16.1 µM

Q: With `C(=C\C(Sc1ccccc1)c1ccccc1)/NNC1=NC(c2ccccc2)C(c2ccccc2)=NN1` (stereo not given) as the molecule, how does the TGI (786-0 renal) read?
A: > 100 µM

Q: What about the TGI (OVCAR-4 ovarian) of the same molecule?
A: > 100 µM

Q: And the TGI (HOP-92 NSCLC)?
A: 80.7 µM

Q: And the TGI (UACC-257 melanoma)?
A: > 100 µM

Q: What about the TGI (HCC-2998 colon) of the same molecule?
A: > 100 µM

Q: And the TGI (LOX IMVI melanoma)?
A: > 100 µM

Q: And the TGI (EKVX NSCLC)?
A: > 100 µM

Q: For `N#CC1(C#N)C=CC(=C2OCC3CCCN23)C=C1` (stereo not given), which TGI (786-0 renal) is on record?
A: > 100 µM

Q: What about the TGI (OVCAR-4 ovarian) of the same molecule?
A: > 100 µM

Q: What about the TGI (HOP-92 NSCLC) of the same molecule?
A: > 100 µM

Q: And the TGI (UACC-257 melanoma)?
A: > 100 µM

Q: And the TGI (HCC-2998 colon)?
A: > 100 µM

Q: What about the TGI (LOX IMVI melanoma) of the same molecule?
A: > 100 µM

Q: Which TGI (786-0 renal) does the source give for `O=C(Nc1ccc(Cl)cc1C(=O)O)c1ccc([N+](=O)[O-])cc1` here?
A: 34.1 µM

Q: What about the TGI (OVCAR-4 ovarian) of the same molecule?
A: 47.1 µM

Q: What about the TGI (HOP-92 NSCLC) of the same molecule?
A: 22.6 µM

Q: What about the TGI (UACC-257 melanoma) of the same molecule?
A: 48 µM

Q: And the TGI (HCC-2998 colon)?
A: 39.6 µM

Q: What about the TGI (LOX IMVI melanoma) of the same molecule?
A: 37.6 µM

Q: And the TGI (EKVX NSCLC)?
A: 82.8 µM

Q: Which results are given for `CCC(C)C1=C(O)[N+]2([O-])Oc3ccc(C4=C(O)C(=O)C(c5ccc(O)cc5)=C(O)C4=O)cc3OC2(C(C)CC)C(=O)N1O` (stereo not given)?
A: GI50 (786-0 renal): 26.1 µM; TGI (786-0 renal): > 100 µM; GI50 (OVCAR-4 ovarian): > 100 µM; TGI (OVCAR-4 ovarian): > 100 µM; GI50 (HOP-92 NSCLC): 9.29 µM; TGI (HOP-92 NSCLC): > 100 µM; GI50 (UACC-257 melanoma): 11.5 µM; TGI (UACC-257 melanoma): > 100 µM; GI50 (HCC-2998 colon): 6.78 µM; TGI (HCC-2998 colon): 57.2 µM; GI50 (HS 578T breast): 7.24 µM; TGI (HS 578T breast): > 100 µM; GI50 (LOX IMVI melanoma): 7.28 µM; TGI (LOX IMVI melanoma): 33.9 µM; GI50 (EKVX NSCLC): 23.7 µM; TGI (EKVX NSCLC): > 100 µM; GI50 (MDA-MB-435): 9.77 µM; TGI (MDA-MB-435): 90.6 µM

Q: How did the TGI (786-0 renal) turn out when `CCOC(=N)CC(=O)Nc1ccccc1` was run?
A: > 46.4 µM

Q: And the TGI (OVCAR-4 ovarian)?
A: > 46.4 µM

Q: And the TGI (UACC-257 melanoma)?
A: > 46.4 µM

Q: And the TGI (HCC-2998 colon)?
A: > 31.6 µM

Q: What about the TGI (LOX IMVI melanoma) of the same molecule?
A: > 71.4 µM

Q: What about the TGI (EKVX NSCLC) of the same molecule?
A: > 100 µM

Q: What does the source list for `COc1cc2c(c(OC)c1OC)-c1ccc(SC)c(=O)cc1[C@@H](NC(=O)C(F)(F)F)CC2`?
A: TGI (786-0 renal): 38.6 µM; TGI (OVCAR-4 ovarian): > 100 µM; TGI (HOP-92 NSCLC): 0.105 µM; TGI (UACC-257 melanoma): > 4.64 µM; TGI (T-47D breast): > 100 µM; TGI (HCC-2998 colon): > 71.3 µM; TGI (HS 578T breast): 71.1 µM; TGI (LOX IMVI melanoma): > 87.3 µM; TGI (EKVX NSCLC): > 100 µM

Q: `COCCc1n(Cc2ccc3ccccc3c2)c2ccccc2[n+]1Cc1ccc2ccccc2c1` was tested. Which GI50 (786-0 renal) did it give?
A: 1.28 µM

Q: And the TGI (786-0 renal)?
A: 2.76 µM

Q: And the GI50 (OVCAR-4 ovarian)?
A: 0.329 µM

Q: And the TGI (OVCAR-4 ovarian)?
A: 1.34 µM

Q: And the GI50 (HOP-92 NSCLC)?
A: 0.214 µM

Q: And the TGI (HOP-92 NSCLC)?
A: 1.13 µM

Q: What about the GI50 (UACC-257 melanoma) of the same molecule?
A: 0.456 µM

Q: And the TGI (UACC-257 melanoma)?
A: 1.77 µM

Q: And the GI50 (MDA-MB-435)?
A: 0.41 µM

Q: And the TGI (MDA-MB-435)?
A: 1.56 µM

Q: For `Clc1cccc(CNc2c3ccccc3nc3ccccc23)c1`, which GI50 (786-0 renal) is on record?
A: 1.66 µM

Q: What about the TGI (786-0 renal) of the same molecule?
A: 3.2 µM

Q: What about the GI50 (OVCAR-4 ovarian) of the same molecule?
A: 2.15 µM

Q: And the TGI (OVCAR-4 ovarian)?
A: 7.95 µM

Q: What about the GI50 (HOP-92 NSCLC) of the same molecule?
A: 1.12 µM

Q: What about the TGI (HOP-92 NSCLC) of the same molecule?
A: 3.82 µM

Q: And the GI50 (UACC-257 melanoma)?
A: 1.92 µM

Q: What about the TGI (UACC-257 melanoma) of the same molecule?
A: 4.25 µM

Q: And the GI50 (T-47D breast)?
A: 2 µM

Q: What about the TGI (T-47D breast) of the same molecule?
A: 5.06 µM

Q: And the GI50 (HCC-2998 colon)?
A: 1.65 µM

Q: What about the TGI (HCC-2998 colon) of the same molecule?
A: 3.19 µM

Q: What about the GI50 (LOX IMVI melanoma) of the same molecule?
A: 1.53 µM

Q: What about the TGI (LOX IMVI melanoma) of the same molecule?
A: 3.08 µM

Q: And the GI50 (EKVX NSCLC)?
A: 2.76 µM

Q: What about the TGI (EKVX NSCLC) of the same molecule?
A: 11.2 µM

Q: What about the GI50 (MDA-MB-435) of the same molecule?
A: 1.67 µM

Q: And the TGI (MDA-MB-435)?
A: 3.13 µM

Q: How did the TGI (786-0 renal) turn out when `O=C(CC1C(=O)Nc2ccccc2S1(=O)=O)Nc1ccc(Cl)cc1` (stereo not given) was run?
A: 38.7 µM

Q: What about the TGI (OVCAR-4 ovarian) of the same molecule?
A: 77.2 µM

Q: And the TGI (HOP-92 NSCLC)?
A: 44.5 µM

Q: What about the TGI (UACC-257 melanoma) of the same molecule?
A: 91.6 µM

Q: What about the TGI (HCC-2998 colon) of the same molecule?
A: 39.6 µM

Q: What about the TGI (LOX IMVI melanoma) of the same molecule?
A: 41.8 µM

Q: Which GI50 (786-0 renal) does the source give for `CCCCCCCCCCCCN=C(N)c1ccc(N2CCN(c3ccc(C(N)=NCCCCCCCCCCCC)cc3)CC2)cc1` here?
A: 6.23 µM

Q: What about the TGI (786-0 renal) of the same molecule?
A: 15.6 µM

Q: And the GI50 (OVCAR-4 ovarian)?
A: 8.88 µM

Q: What about the TGI (OVCAR-4 ovarian) of the same molecule?
A: 20.9 µM

Q: What about the GI50 (HOP-92 NSCLC) of the same molecule?
A: 0.614 µM

Q: What about the TGI (HOP-92 NSCLC) of the same molecule?
A: 2.86 µM

Q: And the GI50 (UACC-257 melanoma)?
A: 26.1 µM

Q: And the TGI (UACC-257 melanoma)?
A: > 50 µM

Q: And the GI50 (T-47D breast)?
A: 10.6 µM

Q: What about the TGI (T-47D breast) of the same molecule?
A: 21.3 µM

Q: What about the GI50 (HCC-2998 colon) of the same molecule?
A: 8.67 µM

Q: What about the TGI (HCC-2998 colon) of the same molecule?
A: 17 µM

Q: What about the GI50 (LOX IMVI melanoma) of the same molecule?
A: 12 µM

Q: And the TGI (LOX IMVI melanoma)?
A: 23 µM

Q: What about the GI50 (EKVX NSCLC) of the same molecule?
A: 9.76 µM

Q: And the TGI (EKVX NSCLC)?
A: 20.5 µM

Q: What about the GI50 (MDA-MB-435) of the same molecule?
A: 9.4 µM

Q: And the TGI (MDA-MB-435)?
A: 19.4 µM
